Experimental data: patent US10273238B2, “Indazolones as modulators of TNF signaling” (AbbVie Inc., priority 2015, dated 2019)
pIC50: −log10 of the molar value.

What follows are compounds tested against TNFα (Homo sapiens, UniProt P01375) (assay: TNFα FP Competitive Binding Assay). Details: 20 nM TNFα trimer, 1 nM OregonGreen488 probe, read-out: TNF IC50.
Experimental: TNFα FP Competitive Binding Assay
Prepare 1× Assay Buffer (Water with 47 mil HEPES, 47 mM NaCl, 0.9 mM EDTA, 0.0071% Triton X-100) by adding 25 mL of 1 M HEPES, 5 mL of 5 M NaCl, 1 mL of 0.5 M EDTA, and 375 μL of a 10% Triton X-100 stock to a fresh 500 mL bottle of water.
Prepare fresh Assay Mixture containing 20 nM TNFα trimer (60 nM protein) and 1 nM 2′,7′-difluoro-3′,6′-dihydroxy-N-(2-(2-(2-((4-(isoquinolin-8-yl)-3-(4-(isoquinolin-8-yl)phenethoxy)benzyl)oxy)ethoxy)ethoxy)ethyl)-3-oxo-3H- spiro[isobenzofuran-1,9′-xanthene]-5-carboxamide probe in 1× Assay Buffer.
Top concentration of compounds, 10 mM in DMSO, dispensed in rows A-O in columns 1 and 13. Compounds are serially diluted 1:3 with DMSO in columns 2-12 or 14-24 using a 16-channel Matrix pipettor. Plates stored at −20° C.
Top concentration, 5 mM in DMSO, of compounds placed in rows A-O in columns 1 and 13.
Compounds are serially diluted 1:3 with DMSO in columns 2-12 or 14-24. Compound solutions are dispensed into replicate assay plates at 410 nL per well. Plates stored at 4° C.
TNFα FP Competitive Binding Assay Protocol • 1. Compound plates warmed to rt. • 2. Fresh Assay Mixture is prepared. • 3. Assay Mixture (20 μL) is dispensed each well of 384 assay plates using a Thermo Multidrop Combi or 16-channel Matrix pipettor. If Manual 12-point 1:3 Dilution Plates are to be tested, Assay Mix is dispensed into empty plates. Discovery Preps 12-point 1:3 Dilution Plates already contain 410 nL compound solution in DMSO. • 4. For Manual 12-point 1:3 Dilution Plates, 0.7 μL is manually transferred using a 16-channel Matrix pipettor to replicate assay plates containing 20 μL Assay Mixture for a final top compound concentration of […] (3.4% DMSO). • 5. For Discovery Preps 12-point 1:3 Dilution Plates, 20 μL Assay Mixture added the 410 nL compound solution already in the plates yields a final top compound concentration of 100 μM (2.0% DMSO). • 6. Background subtraction controls are wells P1-P8 containing only Assay Buffer. The low % inhibition controls are wells P9-P16 containing only Assay Mix. The high % inhibition are wells P17-P24 containing only 1 nM 2′,7′-difluoro-3′,6′-dihydroxy-N-(2-(2-(2-((4-(isoquinolin-8-yl)-3-(4-(isoquinolin-8-yl)phenethoxy)benzyl)oxy)ethoxy)ethoxy)ethyl)-3-oxo-3H-spiro[isobenzofuran-1,9′-xanthene]-5-carboxamide probe in 1× Assay Buffer. • 7. Plates are incubated at rt for 18-24 h in […] (CO2 is off). • 8. Prior to reading the assay, the plates are placed in a dark cabinet to equilibrate at rt for one hour. • 9. Background-subtracted fluorescence polarization (mP) is measured using a PerkinElmer Envision plate reader. • 10. Raw data is entered into Assay Explorer and dose-response curves are generated using a variable slope curve.

Chain of TNFα (P01375 77-233 limits assumed): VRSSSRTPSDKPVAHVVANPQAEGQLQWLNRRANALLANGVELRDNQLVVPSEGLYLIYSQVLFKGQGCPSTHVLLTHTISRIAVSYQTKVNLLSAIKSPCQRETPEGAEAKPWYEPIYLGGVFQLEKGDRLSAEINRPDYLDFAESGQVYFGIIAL

Row | Structure (SMILES) | pIC50
1 | CC(C)(O)c1ncc(-c2cc3c(cc2F)c(=O)n2n3[C@H](c3ccccc3OC(F)F)CC2)cn1 (single isomer, unassigned) [Example 12.2] | > 6.00
2 | COC[C@H]1CCCN1c1ncc(-c2ccc3c(c2)[C@@H]2[C@H](c4ccccc4OC(F)F)CCN2C3=O)cn1 (single isomer, unassigned) [Example 10.3] | 5.00 to 6.00
3 | Cc1ccc(OC(F)F)c([C@@H]2CCn3c(=O)c4cc(F)c(-c5cnc(C(C)(C)O)nc5)cc4n32)c1 (single isomer, unassigned) [Example 13.2] | > 6.00
4 | COc1ccc(CO)cc1C1CCn2c(=O)c3ccc(-c4cnc(N5CCOCC5)nc4)cc3n21 (centres unmarked) [Example 19, 3-(5-(Hydroxymethyl)-2-methoxyphenyl)-6-(2-morpholinopyrimidin-5-yl)-2,3-dihydropyrazolo[1,2-a]indazol-9(1H)-one] | 5.00 to 6.00
5 | Cc1ccc(OC(F)F)c([C@@H]2CCn3c(=O)c4ccc(-c5cnc(C(C)(C)O)nc5)cc4n32)c1 [Example 14.2] | > 6.00
6 | Cc1cccc(C2CCn3c(=O)c4ccc(-c5cnc(N6CCOCC6)nc5)cc4n32)c1C#N (centres unmarked) [Example 8.1, 2-methyl-6-(6-(2-morpholinopyrimidin-5-yl)-9-oxo-1,2,3,9-tetrahydropyrazolo[1,2-a]indazol-3-yl)benzonitrile] | 5.00 to 6.00
7 | Cc1ccc(OC(F)F)c([C@H]2CCn3c(=O)c4ccc(-c5cnc(C(C)(C)O)nc5)cc4n32)c1 (single isomer, unassigned) [Example 15.2] | > 6.00
8 | O=C1NC[C@@H]2CN(c3ncc(-c4ccc5c(c4)[C@H]4[C@@H](c6ccccc6OC(F)F)CCN4C5=O)cn3)CCN12 (single isomer, unassigned) [Example 11.1] | > 6.00
9 | COC[C@H]1CCCN1c1ncc(-c2ccc3c(c2)[C@H]2[C@@H](c4ccccc4OC(F)F)CCN2C3=O)cn1 (single isomer, unassigned) [Example 10.4] | < 5.00
10 | O=C1NC[C@H]2CN(c3ncc(-c4ccc5c(c4)[C@H]4[C@@H](c6ccccc6OC(F)F)CCN4C5=O)cn3)CCN12 (single isomer, unassigned) [Example 11.2] | > 6.00
11 | Cc1ccc(OC(F)F)c([C@H]2CCn3c(=O)c4cc(F)c(-c5cnc(C(C)(C)O)nc5)cc4n32)c1 (single isomer, unassigned) [Example 13.1] | > 6.00
12 | CC(C)(O)c1ncc(-c2ccc3c(c2)[C@@H]2[C@H](c4ccccc4OC(F)F)CCN2C3=O)cn1 (single isomer, unassigned) [Example 10.1] | < 5.00
13 | O=C1c2ccc(-c3cnc(N4CCOCC4)nc3)cc2[C@@H]2[C@H](c3ccccc3OC(F)F)CCN12 (single isomer, unassigned) [Example 9.1] | < 5.00
14 | O=C1c2ccc(-c3cnc(N4CCOCC4)nc3)cc2[C@H]2[C@@H](c3ccccc3OC(F)F)CCN12 (single isomer, unassigned) [Example 9.2] | > 6.00
15 | CC(C)(O)c1ncc(-c2cc3c(cc2F)c(=O)n2n3[C@@H](c3ccccc3OC(F)F)CC2)cn1 (single isomer, unassigned) [Example 12.1] | > 6.00

Next, values leading:

Row | pIC50 | Structure (SMILES)
16 | 5.00 to 6.00 | COC[C@H]1CCCN1c1ncc(-c2ccc3c(=O)n4n(c3c2)[C@@H](c2ccccc2OC(F)F)CC4)cn1 (single isomer, unassigned) [Example 1.5]
17 | > 6.00 | O=C1NC[C@@H]2CN(c3ncc(-c4ccc5c(=O)n6n(c5c4)[C@@H](c4ccccc4OC(F)F)CC6)cn3)CCN12 (single isomer, unassigned) [Example 6.2]
18 | > 6.00 | O=c1c2ccc(-c3cnc(N4CCO[C@H](CO)C4)nc3)cc2n2n1CC[C@H]2c1ccccc1OC(F)F (single isomer, unassigned) [Example 2.1]
19 | > 6.00 | C[C@@H]1CN(c2ncc(-c3ccc4c(=O)n5n(c4c3)[C@@H](c3ccccc3OC(F)F)CC5)cn2)CCN1C(=O)CO (single isomer, unassigned) [Example 6.4]
20 | > 6.00 | O=c1c2ccc(-c3cnc(N4CCC5(CC4)CC(O)C5)nc3)cc2n2n1CC[C@@H]2c1ccccc1OC(F)F (single isomer, unassigned) [Example 4.7]
21 | 5.00 to 6.00 | CC(C)(O)c1ncc(-c2ccc3c(=O)n4n(c3c2)[C@H](c2ccccc2OC(F)F)CC4)cn1 (single isomer, unassigned) [Example 4.1]
22 | > 6.00 | O=c1c2ccc(-c3cnc(N4CCOCC4)nc3)cc2n2n1CCC2c1ccccc1OC(F)F (centres unmarked) [Example 1, 3-(2-(Difluoromethoxy)phenyl)-6-(2-morpholinopyrimidin-5-yl)-2,3-dihydropyrazolo[1,2-a]indazol-9(1H)-one]
23 | > 6.00 | O=C1C[C@@H](CNc2ncc(-c3ccc4c(=O)n5n(c4c3)[C@H](c3ccccc3OC(F)F)CC5)cn2)CN1 (single isomer, unassigned) [Example 4.4]
24 | 5.00 to 6.00 | O=c1c2ccc(-c3cnc(N[C@@H]4CCOC4)nc3)cc2n2n1CC[C@@H]2c1ccccc1OC(F)F (single isomer, unassigned) [Example 1.6]
25 | > 6.00 | O=c1c2ccc(-c3cnc(N4CCC5(CC4)CC(O)C5)nc3)cc2n2n1CC[C@H]2c1ccccc1OC(F)F (single isomer, unassigned) [Example 4.8]
26 | 5.00 to 6.00 | O=C(O)C1CCN(c2ncc(-c3ccc4c(=O)n5n(c4c3)C(c3ccccc3OC(F)F)CC5)cn2)CC1 (centres unmarked) [Example 1.3, 1-(5-(3-(2-(difluoromethoxy)phenyl)-9-oxo-1,2,3,9-tetrahydropyrazolo[1,2-a]indazol-6-yl)pyrimidin-2-yl)piperidine-4-carboxylic acid]
27 | > 6.00 | O=c1c2ccc(-c3cnc(N4CCOCC4)nc3)cc2n2n1CC[C@H]2c1ccccc1OC(F)F (single isomer, unassigned) [Example 1.2]
28 | > 6.00 | Cc1nc(C(C)(C)O)ncc1-c1ccc2c(=O)n3n(c2c1)[C@@H](c1ccccc1OC(F)F)CC3 [Example 6.6]
29 | > 6.00 | O=c1c2ccc(-c3cnc(N4CCO[C@@H](CO)C4)nc3)cc2n2n1CC[C@H]2c1ccccc1OC(F)F (single isomer, unassigned) [Example 1.9]
30 | > 6.00 | O=c1c2ccc(-c3cnc(N4CCOCC4)nc3)cc2n2n1CCCC2c1ccccc1OC(F)F (centres unmarked) [Example 7.1, 6-(2-(difluoromethoxy)phenyl)-3-(2-morpholinopyrimidin-5-yl)-8,9-dihydro-6H-pyridazino[1,2-a]indazol-11(7H)-one]
31 | > 6.00 | O=c1c2ccc(-c3cnc(N4CCO[C@@H](CO)C4)nc3)cc2n2n1CC[C@@H]2c1ccccc1OC(F)F (single isomer, unassigned) [Example 1.8]
32 | > 6.00 | O=C1NC[C@H]2CN(c3ncc(-c4ccc5c(=O)n6n(c5c4)[C@@H](c4ccccc4OC(F)F)CC6)cn3)CCN12 (single isomer, unassigned) [Example 6.1]
33 | > 6.00 | O=C1NC[C@H]2CN(c3ncc(-c4ccc5c(=O)n6n(c5c4)[C@H](c4ccccc4OC(F)F)CC6)cn3)CCN12 (single isomer, unassigned) [Example 5.1]
34 | > 6.00 | O=c1c2ccc(-c3cnc(N4CCOCC4)nc3)cc2n2n1CC[C@@H]2c1ccccc1OC(F)F (single isomer, unassigned) [Example 1.1]
35 | > 6.00 | O=c1c2ccc(-c3cnc(N4CCO[C@H](CO)C4)nc3)cc2n2n1CC[C@@H]2c1ccccc1OC(F)F (single isomer, unassigned) [Example 3.1]
